Assay results taken from patent US20240164385A1, “A SYNERGISTIC PLANT GROWTH STIMULANT COMPOSITION COMPRISING POTASSIUM MONO/DIFORMATE AND METAL ION COMPOUNDS TO ENHANCED METABOLIC ACTIVITIES IN PLANTS” (FERTIS INDIA PVT LTD, priority 2021, published 2024).

What was measured:
Assay type in all cases: in vivo
[1] = test system: paddy grain; assay: Micronutrient absorption levels in paddy grains by ICP; conditions: paddy grain samples
Description: Analysis of Micronutrients in Paddy Samples by ICP (Inductive Coupled Plasma) Equipment.
• i. 1 gm of grain powder added to 60 ml of perchloric acid and Nitric acid (9:1) digest for overnight. • ii. Heat at 100° C. for 2 hours until vapors change from red to white color. • iii. The resultant solution filtered through Whatman paper and makeup to 100 ml with 1% nitric acid.

[2] = test system: paddy grain; assay: Estimation of total phenol content in paddy grain samples (Folin-Ciocalteu); conditions: absorbance at 765 nm
Description: Folin-Ciocalteu's Phenol Reagent Preparation: Take 5 ml of folin ciocalteu's phenol reagent in 50 ml of volumetric flask and then make up to the mark with distilled water 7.5% of Na2CO3 Preparation: Take 7.5 g of Na2CO3 in 100 ml of volumetric flask and then make up to mark with distilled water. Sample Procedure: • i. […] Keep it hot plate for extraction at 95° C. for 1 hr. • iii. After 1 hr filter through whatman filter paper 1 and then make up to 25 ml of volumetric flask with 70% methanol. • iv. […] Incubation for 5 mins. • vi. After 5 mins add 4 ml of 7.5% Na2CO3 mix well then keep it dark place incubation for 1 hr. • vii. Measure the absorbance at 765 nm. • viii. […] Check OD @765 nm.

[3] = test system: paddy grain; assay: Estimation of total protein content in paddy grain samples by Lowry method; conditions: 660 nm
Description: To the above solution add 5 g of Na2co3 mix well. B. 1% NAK Tartrate (Sodium Potassium Tartrate) Preparation: • Dissolve 1 g of NAK tartrate in 100 ml of volumetric flask and then make up to mark with distilled water. C. […] Dissolve 100 mg of BSA in 100 ml of volumetric flask and then make up to mark with distilled water. Take 6 test tubes then add to the above solution each of 0.1, 0.2, 0.3, 0.4, 0.5, 0.6. Sample Procedure: • i. […] Then filter through whatman filter paper 1 we take test tubes and add 1 ml of each sample. • iii. Add 4.5 ml of reagent 1 and incubate for 10 mins. • iv. After incubation add 0.5 ml of reagent 2 and incubate for 30 mins. • v. Measure the absorbance at 660 nm and plot the standard graph. The Analysis of protein estimation in grain samples is performed by Lowry method with UV Vis Spectro photo meter at 660 nm.

Row | SMILES | B (Boron) [1] | Ca (Calcium) [1] | Co (Cobalt) [1] | Cu (Copper) [1] | Fe (Iron) [1] | Mg (Magnesium) [1] | Mn (Manganese) [1] | Zn (Zinc) [1] | Phenol Content [2] | Total Protein content [3]
1 | O=CO.O=C[O-].[K+] [Potassium diformate] | 35.9 ppm | 399.0 ppm | 14.2 ppm | 35.0 ppm | 397.0 ppm | 678.0 ppm | 50.4 ppm | 66.6 ppm | 17.96 ppm | 0.084 ppm
2 | O=C[O-].[K+] [Potassium formate] | 38.4 ppm | 401.7 ppm | 14.2 ppm | 37.0 ppm | 401.0 ppm | 646.0 ppm | 46.5 ppm | 50.6 ppm | 16.69 ppm | 0.086 ppm
